Measurements as given in US11512069B2, “TLR7/8 antagonists and uses thereof” (Merck Patent GmbH, priority 2016, dated 2022).

target: T1, TLR7 (Homo sapiens, UniProt Q9NYK1); assay: HEK Cell Assay (TLR7/NFKb HEK reporter cells, Steady-Glo); assay type: cell-based; settings: compound 30 min, then R*48 agonist 5 hours, Steady-Glo readout, read-out: Potency
T1 construct: expressed in transfected cells; host or cells: HEK cells carrying TLR7 and an NF-kB reporter read with Steady-Glo
T1 sequence (Q9NYK1 27-1049): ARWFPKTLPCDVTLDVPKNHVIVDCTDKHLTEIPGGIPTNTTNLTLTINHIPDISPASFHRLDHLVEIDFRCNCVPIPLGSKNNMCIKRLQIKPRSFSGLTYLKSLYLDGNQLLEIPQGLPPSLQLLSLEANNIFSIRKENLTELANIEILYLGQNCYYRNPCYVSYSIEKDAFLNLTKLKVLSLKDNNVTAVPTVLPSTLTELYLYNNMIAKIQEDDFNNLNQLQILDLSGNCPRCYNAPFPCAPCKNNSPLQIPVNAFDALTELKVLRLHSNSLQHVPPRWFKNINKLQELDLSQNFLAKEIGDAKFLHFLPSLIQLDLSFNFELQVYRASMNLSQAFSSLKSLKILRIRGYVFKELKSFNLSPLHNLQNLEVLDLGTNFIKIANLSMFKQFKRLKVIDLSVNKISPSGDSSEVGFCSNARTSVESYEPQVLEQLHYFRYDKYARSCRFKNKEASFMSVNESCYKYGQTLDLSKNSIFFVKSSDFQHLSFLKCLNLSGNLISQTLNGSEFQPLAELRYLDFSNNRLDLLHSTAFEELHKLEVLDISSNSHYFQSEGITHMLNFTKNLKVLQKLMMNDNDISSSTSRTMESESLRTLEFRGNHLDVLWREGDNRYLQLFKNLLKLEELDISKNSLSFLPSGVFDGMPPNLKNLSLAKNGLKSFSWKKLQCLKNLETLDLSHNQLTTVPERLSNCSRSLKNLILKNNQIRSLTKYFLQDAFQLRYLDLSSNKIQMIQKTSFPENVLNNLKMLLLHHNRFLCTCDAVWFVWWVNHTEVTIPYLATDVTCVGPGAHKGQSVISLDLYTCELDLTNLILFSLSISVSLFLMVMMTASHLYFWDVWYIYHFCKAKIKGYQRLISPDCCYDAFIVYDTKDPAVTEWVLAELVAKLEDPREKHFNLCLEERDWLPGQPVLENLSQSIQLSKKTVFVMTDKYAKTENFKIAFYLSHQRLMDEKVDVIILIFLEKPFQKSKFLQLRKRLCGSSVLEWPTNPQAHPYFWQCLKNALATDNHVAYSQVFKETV
Method in brief: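 TLR7/NF-κB HEK reporter cells cultured 24 h, then pre-incubated 30 min with compound before adding R*48 agonist. Luciferase read by Steady-Glo luminescence after 5 h.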

SMILES | IC50 [µM]
CC(C)N1CCC(CC(=O)N2C[C@@H](C)C[C@@H](c3ccc(C#N)c4ncccc34)C2)CC1 [Compound 47, 5-{(3S,5S)-1-[2-(1-Isopropyl-piperidin-4-yl)-acetyl]-5-methyl-piperidin-3-yl}-quinoline-8-carbonitrile] | 1 to 20
COC(=O)CCN1CC(C)CC(c2ccc(C#N)c3ncccc23)C1 (stereo not drawn) [Compound 48, 3-[3-(8-Cyano-quinolin-5-yl)-5-methyl-piperidin-1-yl]-propionic acid methyl ester] | > 20
CC1CC(c2ccc(C#N)c3ncccc23)CN(CCC(N)=O)C1 (stereo not drawn) [Compound 49, 3-[3-(8-Cyano-quinolin-5-yl)-5-methyl-piperidin-1-yl]-propionamide] | > 20
CNC(=O)CCN1CC(C)CC(c2ccc(C#N)c3ncccc23)C1 (stereo not drawn) [Compound 50] | > 20
CC1CC(c2ccc(C#N)c3ncccc23)CN(CC2CCN(C)C2)C1 (stereo not drawn) [Compound 51] | < 1
CC1CC(c2ccc(C#N)c3ncccc23)CN(CC2CCN(C)CC2)C1 (stereo not drawn) [Compound 52] | < 1
C[C@@H]1C[C@@H](c2ccc(C#N)c3ncccc23)CN(C(=O)CC2CCN(C)CC2)C1 [Compound 54, 5-{(3S,5R)-5-Methyl-1-[2-(1-methyl-piperidin-4-yl)-acetyl]-piperidin-3-yl}-quinoline-8-carbonitrile] | < 1
C[C@H]1C[C@@H](c2ccc(C#N)c3ncccc23)CN(C(=O)CC2CCN(C)CC2)C1 [Compound 56] | 1 to 20
CC1CC(c2ccc(C(F)(F)F)c3ncccc23)CN(c2ccon2)C1 (stereo not drawn) [Compound 57, 5-(1-Isoxazol-3-yl-5-methyl-piperidin-3-yl)-8-trifluoromethyl-quinoline] | > 20
CC1CC(c2ccc(C(F)(F)F)c3ncccc23)CN(c2cnn(C)c2)C1 (stereo not drawn) [Compound 58, 5-[5-Methyl-1-(1-methyl-1H-pyrazol-4-yl)-piperidin-3-yl]-8-trifluoromethyl-quinoline] | 1 to 20
CC1CC(c2ccc(C(F)(F)F)c3ncccc23)CN(c2ncco2)C1 (stereo not drawn) [Compound 59, 5-(5-Methyl-1-oxazol-2-yl-piperidin-3-yl)-8-trifluoromethyl-quinoline] | 1 to 20
C[C@@H]1C[C@@H](c2ccc(C#N)c3ncccc23)CN(C(=O)[C@@H](N)C2CC2)C1 [Compound 60, trans-1-((S)-2-Amino-2-cyclopropyl-acetyl)-5-methyl-piperidin-3-yl-quinoline-8-carbonitrile] | 1 to 20
C[C@@H]1C[C@H](c2ccc(C#N)c3ncccc23)CN(C(=O)[C@@H](N)C2CC2)C1 [Compound 61] | 1 to 20
C[C@@H]1C[C@H](c2ccc(C#N)c3ncccc23)CN(C(=O)C[C@@H]2[C@H]3CN(C)C[C@@H]23)C1 [Compound 78] | < 1
Cc1ccc([C@@H]2C[C@@H](C)CN(C(=O)CC3CCN(C)CC3)C2)c2cccnc12 [Compound 80, 1-[(3R,5S)-3-Methyl-5-(8-methyl-quinolin-5-yl)-piperidin-1-yl]-2-(1-methyl-piperidin-4-yl)-ethanone] | < 1
Cc1ccc([C@H]2C[C@@H](C)CN(C(=O)CC3CCN(C)CC3)C2)c2cccnc12 [Compound 81, 1-[(3R,5R)-3-Methyl-5-(8-methyl-quinolin-5-yl)-piperidin-1-yl]-2-(1-methyl-piperidin-4-yl)-ethanone] | < 1
Cc1ccc([C@@H]2C[C@H](C)CN(C(=O)CC3CCN(C)CC3)C2)c2cccnc12 [Compound 82, 1-[(3S,5S)-3-Methyl-5-(8-methyl-quinolin-5-yl)-piperidin-1-yl]-2-(1-methyl-piperidin-4-yl)-ethanone] | 1 to 20

SMILES | IC50 [µM]
Cc1ccc([C@H]2C[C@H](C)CN(C(=O)CC3CCN(C)CC3)C2)c2cccnc12 [Compound 83, 1-[(3S,5R)-3-Methyl-5-(8-methyl-quinolin-5-yl)-piperidin-1-yl]-2-(1-methyl-piperidin-4-yl)-ethanone] | < 1
Cc1ccc([C@H]2C[C@@H](C)CN(C(=O)CC3C4CC3CN(C)C4)C2)c2cccnc12 (stereo partly drawn) [Compound 84, 2-(3-Methyl-3-aza-bicyclo [3.1.1]hept-6-yl)-1-[(3R,5R)-3-methyl-5-(8-methyl-quinolin-5-yl)-piperidin-1-yl]-ethanone] | < 1
C[C@@H]1C[C@H](c2cc(F)c(C#N)c3ncccc23)CN(C(=O)CC2CCN(C)CC2)C1 [Compound 85, 7-Fluoro-5-{(3R,5R)-5-methyl-1-[2-(1-methyl-piperidin-4-yl)-acetyl]-piperidin-3-yl}-quinoline-8-carbonitrile] | 1 to 20
COc1ccc([C@@H]2C[C@@H](C)CN(C(=O)CC3CCN(C)CC3)C2)c2cccnc12 [Compound 86, 1-[(3S,5R)-3-(8-Methoxy-quinolin-5-yl)-5-methyl-piperidin-1-yl]-2-(1-methyl-piperidin-4-yl)-ethanone] | < 1
COc1ccc([C@H]2C[C@@H](C)CN(C(=O)CC3CCN(C)CC3)C2)c2cccnc12 [Compound 87, 1-[(3R,5R)-3-(8-Methoxy-quinolin-5-yl)-5-methyl-piperidin-1-yl]-2-(1-methyl-piperidin-4-yl)-ethanone] | < 1
COc1ncc([C@@H]2C[C@@H](C)CN(C(=O)CC3CCN(C)CC3)C2)c2cccnc12 [Compound 88, 1-[(3S,5R)-3-(8-Methoxy-[1,7]naphthyridin-5-yl)-5-methyl-piperidin-1-yl]-2-(1-methyl-piperidin-4-yl)-ethanone] | 1 to 20
COc1ncc([C@H]2C[C@@H](C)CN(C(=O)CC3CCN(C)CC3)C2)c2cccnc12 [Compound 89, 1-[(3R,5R)-3-(8-Methoxy-[1,7]naphthyridin-5-yl)-5-methyl-piperidin-1-yl]-2-(1-methyl-piperidin-4-yl)-ethanone] | 1 to 20
Cc1c(F)cc([C@H]2C[C@@H](C)CN(C(=O)CC3CCN(C)CC3)C2)c2cccnc12 [Compound 90, 1-[(3R,5R)-3-(7-Fluoro-8-methyl-quinolin-5-yl)-5-methyl-piperidin-1-yl]-2-(1-methyl-piperidin-4-yl)-ethanone] | < 1
C[C@@H]1C[C@H](c2ccc(C#N)c3ncccc23)CN(C(=O)C[C@H]2CCN(C)CC2(F)F)C1 [Compound 91, 5-{(3R,5R)-1-[2-((R)-3,3-Difluoro-1-methyl-piperidin-4-yl)-acetyl]-5-methyl-piperidin-3-yl}-quinoline-8-carbonitrile] | 1 to 20
C[C@@H]1C[C@H](c2ccc(C#N)c3ncccc23)CN(C(=O)C[C@@H]2CCN(C)CC2(F)F)C1 [Compound 92, 5-((3R,5R)-1-[2-((S)-3,3-Difluoro-1-methyl-piperidin-4-yl)-acetyl]-5-methyl-piperidin-3-yl}-quinoline-8-carbonitrile] | < 1
C[C@@H]1C[C@H](c2ccc(C#N)c3ncccc23)CN(C(=O)CC2C3CC2CN(C)C3)C1 (stereo partly drawn) [Compound 93, 5-[(3R,5R)-5-methyl-1-[2-(3-methyl-3-azabicyclo[3.1.1]heptan-6-yl)acetyl]-3-piperidyl]quinoline-8-carbonitrile] | < 1
Cc1ncc([C@@H]2C[C@@H](C)CN(C(=O)CC3CCN(C)CC3)C2)c2cccnc12 [Compound 94, 1-[(3R,5S)-3-Methyl-5-(8-methyl-[1,7]naphthyridin-5-yl)-piperidin-1-yl]-2-(1-methyl-piperidin-4-yl)-ethanone] | 1 to 20
Cc1ncc([C@H]2C[C@@H](C)CN(C(=O)CC3CCN(C)CC3)C2)c2cccnc12 [Compound 95, 1-[(3R,5R)-3-Methyl-5-(8-methyl-[1,7]naphthyridin-5-yl)-piperidin-1-yl]-2-(1-methyl-piperidin-4-yl)-ethanone] | 1 to 20
C[C@@H]1C[C@@H](c2ccc(C#N)c3ncccc23)CN(C(=O)CN2CCN(C)CC2)C1 [Compound 96, 5-{(3S,5R)-5-Methyl-1-[2-(4-methyl-piperazin-1-yl)-acetyl]-piperidin-3-yl}-quinoline-8-carbonitrile] | 1 to 20
C[C@@H]1C[C@H](c2ccc(C#N)c3ncccc23)CN(C(=O)CN2CCN(C)CC2)C1 [Compound 97, 5-((3R,5R)-5-Methyl-1-[2-(4-methyl-piperazin-1-yl)-acetyl]-piperidin-3-yl}-quinoline-8-carbonitrile] | < 1
C[C@@H]1C[C@H](c2ccc(C#N)c3ncccc23)CN(C(=O)C2(N)CC2)C1 [Compound 98, 5-[(3R,5R)-1-(1-Amino-cyclopropanecarbonyl)-5-methyl-piperidin-3-yl]-quinoline-8-carbonitrile] | > 20
